Experimental data as given in PubChem BioAssay AID248 (DTP/NCI, 2004).
Several values for one entry are separate records, joined by “and”; a condition that tells them apart may be missing. Equal entries are not always repeated. Toxic doses and inconclusive results are not listed.

System: L1210 leukemia ip in BDF1 mice, survival T/C
Assay: NCI In Vivo Anticancer Drug Screen. Data for tumor model L1210 Leukemia (intraperitoneal) in B6D2F1 (BDF1) mice
Conditions: endpoint: mean survival time, higher = longer survival
Outline: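 Tumor was transplanted into mice, which were then dosed with test compound or vehicle alone. Survival was recorded for each group, and the treated figure was expressed relative to the control figure.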

[1] = dose: 100.0 mg/kg/injection, schedule: Q01DX001 (ip), vehicle: saline
[2] = dose: 200.0 mg/kg/injection, schedule: Q01DX001 (ip), vehicle: saline
[3] = dose: 400.0 mg/kg/injection, schedule: Q01DX001 (ip), vehicle: saline
[4] = dose: 100.0 mg/kg/injection, schedule: Q01DX009 (ip), vehicle: saline with Tween-80
[5] = dose: 200.0 mg/kg/injection, schedule: Q01DX009 (ip), vehicle: saline with Tween-80
[6] = dose: 100.0 mg/kg/injection, schedule: Q04DX003 (ip), vehicle: Klucel (hydroxypropylcellulose) (HPC)

CC(=O)OCC1OC(n2cc(C)c(=O)[nH]c2=O)C(OC(C)=O)C(OC(C)=O)C1OC(C)=O (stereo not given)
T/C [1]: 94 % of control
T/C [2]: 105 % of control
T/C [3]: 97 % of control

CNC(=N)c1ccc(NC(=N)c2ccc(NC(=O)Nc3cccc(NC(=O)Nc4ccc(C(=N)Nc5ccc(C(=N)NC)cc5)cc4)c3)cc2)cc1
T/C (dose: 0.31 mg/kg/injection, schedule: Q01DX015 (ip), vehicle: water): 103 % of control
T/C (dose: 0.62 mg/kg/injection, schedule: Q01DX015 (ip), vehicle: water): 115 % of control
T/C (dose: 1.0 mg/kg/injection, schedule: Q01DX Z (ip), vehicle: water): 154 % of control
T/C (dose: 2.0 mg/kg/injection, schedule: Q01DX Z (ip), vehicle: water): 158 % of control
T/C (dose: 3.5 mg/kg/injection, schedule: Q01DX Z (ip), vehicle: water): 150 % of control
T/C (dose: 4.0 mg/kg/injection, schedule: Q01DX Z (ip), vehicle: water): 150 % of control
T/C (dose: 5.0 mg/kg/injection, schedule: Q01DX015 (ip), vehicle: water): 162 % of control
T/C (dose: 7.0 mg/kg/injection, schedule: Q01DX Z (ip), vehicle: water): 172 % of control
T/C (dose: 7.5 mg/kg/injection, schedule: Q01DX015 (ip), vehicle: water): 203 % of control
T/C (dose: 10.0 mg/kg/injection, schedule: Q01DX015 (ip), vehicle: water): 241 % of control
T/C (dose: 10.0 mg/kg/injection, schedule: Q01DX Z (ip), vehicle: water): 236 % of control
T/C (dose: 14.25 mg/kg/injection, schedule: Q01DX Z (ip), vehicle: water): 193 % of control
T/C (dose: 15.0 mg/kg/injection, schedule: Q01DX015 (ip), vehicle: water): 340 % of control
T/C (dose: 28.5 mg/kg/injection, schedule: Q01DX Z (ip), vehicle: water): 92 % of control

O=C(COc1ccc(Cl)c(Cl)c1)Nc1cccnc1
T/C (dose: 75.0 mg/kg/injection, schedule: Q01DX009 (ip), vehicle: Klucel (hydroxypropylcellulose) (HPC)): 104 % of control
T/C (dose: 150.0 mg/kg/injection, schedule: Q01DX009 (ip), vehicle: Klucel (hydroxypropylcellulose) (HPC)): 96 % of control
T/C (dose: 300.0 mg/kg/injection, schedule: Q01DX009 (ip), vehicle: Klucel (hydroxypropylcellulose) (HPC)): 101 % of control

NC(=S)c1ccc(Cl)cc1
T/C [4]: 95 % of control
T/C (dose: 100.0 mg/kg/injection, schedule: Q04DX002 (ip), vehicle: saline with Tween-80): 101 % of control
T/C [5]: 110 % of control
T/C (dose: 200.0 mg/kg/injection, schedule: Q04DX002 (ip), vehicle: saline with Tween-80): 97 % of control
T/C (dose: 400.0 mg/kg/injection, schedule: Q04DX002 (ip), vehicle: saline with Tween-80): 97 % of control

CCOC(=O)CN=NNc1[nH]ncc1C(N)=O
T/C (dose: 100.0 mg/kg/injection, schedule: Q01DX001 (ip), vehicle: other): 102 % of control
T/C [4]: 115 % of control
T/C (dose: 100.0 mg/kg/injection, schedule: Q04DX003 (ip), vehicle: other): 101 % of control
T/C (dose: 200.0 mg/kg/injection, schedule: Q01DX001 (ip), vehicle: other): 104 % of control
T/C [5]: 115 % of control
T/C (dose: 200.0 mg/kg/injection, schedule: Q04DX003 (ip), vehicle: other): 113 % of control
T/C (dose: 400.0 mg/kg/injection, schedule: Q01DX001 (ip), vehicle: other): 105 % of control
T/C (dose: 400.0 mg/kg/injection, schedule: Q01DX009 (ip), vehicle: saline with Tween-80): 116 % of control
T/C (dose: 400.0 mg/kg/injection, schedule: Q04DX003 (ip), vehicle: other): 104 % of control

Cc1cc(C)[nH]c(=S)n1
T/C (dose: 100.0 mg/kg/injection, schedule: Q04DX002 (ip), vehicle: saline): 101 % of control
T/C (dose: 100.0 mg/kg/injection, schedule: Q04DX003 (ip), vehicle: saline): 97 % of control
T/C (dose: 200.0 mg/kg/injection, schedule: Q04DX002 (ip), vehicle: saline): 101 % of control
T/C (dose: 200.0 mg/kg/injection, schedule: Q04DX003 (ip), vehicle: saline): 89 % of control
T/C (dose: 400.0 mg/kg/injection, schedule: Q04DX002 (ip), vehicle: saline): 94 % of control

CC(=O)c1ccc(CC2CC3CCC2C3)cc1 (stereo not given)
T/C (dose: 100.0 mg/kg/injection, schedule: Q01DX001 (ip), vehicle: Klucel (hydroxypropylcellulose) (HPC)): 112 % of control
T/C [6]: 94 % of control
T/C (dose: 200.0 mg/kg/injection, schedule: Q01DX001 (ip), vehicle: Klucel (hydroxypropylcellulose) (HPC)): 96 % of control
T/C (dose: 200.0 mg/kg/injection, schedule: Q04DX003 (ip), vehicle: Klucel (hydroxypropylcellulose) (HPC)): 89 % of control
T/C (dose: 400.0 mg/kg/injection, schedule: Q01DX001 (ip), vehicle: Klucel (hydroxypropylcellulose) (HPC)): 89 % of control
T/C (dose: 400.0 mg/kg/injection, schedule: Q04DX003 (ip), vehicle: Klucel (hydroxypropylcellulose) (HPC)): 98 % of control

CCN(CC)CCN(C)c1cc(C)nc(/N=C(\N)Nc2ccc(Cl)c(Cl)c2)n1
T/C (dose: 18.75 mg/kg/injection, schedule: Q01DX009 (ip), vehicle: saline with Tween-80): 92 % of control
T/C (dose: 37.5 mg/kg/injection, schedule: Q01DX009 (ip), vehicle: saline with Tween-80): 103 % of control
T/C (dose: 37.5 mg/kg/injection, schedule: Q04DX003 (ip), vehicle: saline with Tween-80): 93 % of control
T/C (dose: 75.0 mg/kg/injection, schedule: Q01DX009 (ip), vehicle: saline with Tween-80): 92 % of control
T/C (dose: 75.0 mg/kg/injection, schedule: Q04DX003 (ip), vehicle: saline with Tween-80): 97 % of control

CC(CN(C)C)CN1c2ccccc2CCc2ccccc21 (stereo not given)
T/C (dose: 4.37 mg/kg/injection, schedule: Q01DX009 (ip), vehicle: saline): 101 % of control
T/C (dose: 8.75 mg/kg/injection, schedule: Q01DX009 (ip), vehicle: saline): 101 % of control
T/C (dose: 17.5 mg/kg/injection, schedule: Q01DX009 (ip), vehicle: saline): 98 % of control
T/C (dose: 17.5 mg/kg/injection, schedule: Q04DX003 (ip), vehicle: saline): 102 % of control
T/C (dose: 35.0 mg/kg/injection, schedule: Q01DX009 (ip), vehicle: saline): 107 % of control
T/C (dose: 35.0 mg/kg/injection, schedule: Q04DX003 (ip), vehicle: saline): 102 % of control
T/C (dose: 70.0 mg/kg/injection, schedule: Q04DX003 (ip), vehicle: saline): 104 % of control

Cc1ccc(S(=O)(=O)Nc2ccc(C(=O)NC(CCC(=O)O)C(=O)O)cc2)cc1 (stereo not given)
T/C (dose: 100.0 mg/kg/injection, schedule: Q04DX003 (ip), vehicle: gum acacia): 95 % of control
T/C (dose: 200.0 mg/kg/injection, schedule: Q04DX003 (ip), vehicle: gum acacia): 98 % of control
T/C (dose: 400.0 mg/kg/injection, schedule: Q04DX003 (ip), vehicle: gum acacia): 95 % of control

COc1ccc(OC)c(NC(=O)NNC(=O)c2ccc(Cl)cc2)c1
T/C (dose: 25.0 mg/kg/injection, schedule: Q01DX009 (ip), vehicle: saline with Tween-80): 95 % of control
T/C (dose: 50.0 mg/kg/injection, schedule: Q01DX009 (ip), vehicle: saline with Tween-80): 94 % of control
T/C [4]: 92 % of control

CN1C(=O)C(C)(C)C(=O)c2ccccc21
T/C (dose: 100.0 mg/kg/injection, schedule: Q04DX002 (ip), vehicle: other): 90 % of control
T/C (dose: 200.0 mg/kg/injection, schedule: Q04DX002 (ip), vehicle: other): 100 % of control
T/C (dose: 400.0 mg/kg/injection, schedule: Q04DX002 (ip), vehicle: other): 97 % of control

CC(=O)Oc1cc(C)nc(OC(C)=O)c1
T/C [1]: 94 % of control
T/C [2]: 100 % of control
T/C [3]: 97 % of control

COc1cc(O)c([N+](=O)[O-])cc1OC
T/C (dose: 50.0 mg/kg/injection, schedule: Q04DX003 (ip), vehicle: DMSO): 92 % of control
T/C (dose: 100.0 mg/kg/injection, schedule: Q04DX003 (ip), vehicle: DMSO): 97 % of control
T/C (dose: 200.0 mg/kg/injection, schedule: Q04DX003 (ip), vehicle: DMSO): 92 % of control

CCCCCCOc1ccc(C2=C(c3ccccc3)C(=O)C(c3ccccc3)=C2c2ccccc2)cc1
T/C (dose: 100.0 mg/kg/injection, schedule: Q01DX001 (ip), vehicle: carboxymethylcellulose (CMC)): 100 % of control
T/C (dose: 200.0 mg/kg/injection, schedule: Q01DX001 (ip), vehicle: carboxymethylcellulose (CMC)): 97 % of control
T/C (dose: 400.0 mg/kg/injection, schedule: Q01DX001 (ip), vehicle: carboxymethylcellulose (CMC)): 100 % of control

CC[n+]1c(C)sc2cc3c(cc21)OCO3
T/C (dose: 25.0 mg/kg/injection, schedule: Q04DX003 (ip), vehicle: Klucel (hydroxypropylcellulose) (HPC)): 102 % of control
T/C (dose: 50.0 mg/kg/injection, schedule: Q01DX009 (ip), vehicle: Klucel (hydroxypropylcellulose) (HPC)): 103 % of control
T/C (dose: 50.0 mg/kg/injection, schedule: Q04DX003 (ip), vehicle: Klucel (hydroxypropylcellulose) (HPC)): 107 % of control
T/C (dose: 100.0 mg/kg/injection, schedule: Q01DX009 (ip), vehicle: Klucel (hydroxypropylcellulose) (HPC)): 96 % of control
T/C [6]: 105 % of control and 109 % of control
